{
  "source": "paper PMC11795529",
  "about": "“Simulation of Antral Conditions for Estimating Drug Apparent Equilibrium Solubility after a High-Calorie, High-Fat Meal” (Molecular Pharmaceutics, 2025)",
  "key": {"[1]": {"settings": "cited from earlier work"}, "[2]": {"settings": "cited from earlier work; for Ketoconazole Concentration, Mean: three samples"}, "[3]": {"experiment": "Shake-flask apparent equilibrium solubility in pooled human antral aspirates (HGFfed) collected after a high-calorie, high-fat meal and water", "type": "physicochemical", "settings": "pooled antral (gastric) aspirates, fed state"}, "[4]": {"experiment": "Shake-flask apparent equilibrium solubility in biorelevant media (FeSSGF-V2, FEDGAS pH 3, FeSSGF-V3)", "type": "physicochemical", "procedure": "Biorelevant media were prepared on the day of the solubility measurements.\nFEDGAS1/2 pH = 3 (Level II biorelevance[5]) was prepared as FEDGAS pH = 3 but with half the amount of FEDGASgel, i.e., by using 7.65 g of FEDGASgel/90 mL.\nFEDGAS1/4 pH = 3 (Level II biorelevance[5]) was prepared as FEDGAS pH = 3 but with 1/4 of the amount of FEDGASgel, i.e., by using 3.825 g of FEDGASgel/90 mL.\nFEDGASbuffer pH = 3 (Level I biorelevance[5]) was prepared by diluting FEDGAS buffer concentrate with distilled water, as indicated in Table 3.\nIn Level III FeSSGF-V3, the presence of proteins was simulated using Régilait Skimmed Milk Powder. The high-calorie, high-fat meal consists of up to about 1000 kcal and ≈15% of the total amount of calories is derived from proteins.[15],[16] If 1 g of protein corresponds to 4 kcal, then the meal contains up to about 37 g of proteins. Based on phenol red data, after a high-calorie, high-fat meal and a glass of water 30 min after initiation of meal intake, the impact of resting gastric contents/swallowed saliva/gastric secretions on the dilution of antral contents is substantial; however, dilution of contents occurs predominantly during meal administration.[8] Specifically, when 100 mg of phenol red was included in the meal, the mean phenol red concentration in the antrum fluctuated around 0.06 mg/mL for at least 3 h after initiation of meal administration.[6] It can, therefore, be assumed that the protein concentration in the antral region would be about 37 g × (0.06 mg/mL/100 mg) = 0.0222 g/mL ≈ 22 mg/mL. Since Régilait contains 36% w/w proteins, Régilait Skimmed Milk Powder 6.1% w/v in medium is equivalent to 2.196% (w/v) protein concentration, i.e., ≈ 22 mg/mL."}, "[5]": {"settings": "Level III FeSSGF-V3HCl and HGFfed15 sample, 37 °C, shake-flask"}, "[6]": {"design": "method as in PMID 19644845", "settings": "cited from earlier work"}, "physchem": {"experiment": "physchem", "settings": "for solubility thermodynamic at 4 h: human, pooled antral (gastric) aspirates, fed state, thermodynamic from solid; for solubility: simple aqueous solution"}},
  "note": "Values joined by “and” are separate entries in the source; they are usually repeats but may differ in a detail not shown here. Equal values may be shown once. Read-outs that look alike come from different tables or passages of the source.",
  "data": [
    {"smiles": "C#C[C@]1(O)CC[C@H]2[C@@H]3CCC4=Cc5oncc5C[C@]4(C)[C@H]3CC[C@@]21C", "note": "[Danazol]", "values": [
      {"measurement": "logP", "setting": "[1]", "value": 4.53},
      {"measurement": "Danazol Concentration", "setting": "[2]; Level II FeSSIF, 1st filtration, samples 1, 2, 3 in order", "value": "26.61 µg/mL and 26.22 µg/mL and 26.44 µg/mL"},
      {"measurement": "Danazol Concentration", "setting": "[2]; Level II FeSSIF, 2nd filtration, samples 1, 2, 3 in order", "value": "26.34 µg/mL and 25.39 µg/mL and 25.44 µg/mL"},
      {"measurement": "adsorption on regenerated cellulose filter", "setting": "[2]; Level II FeSSIF", "value": "negligible adsorption"},
      {"measurement": "% adsorbed", "setting": "[2]; Level II FeSSIF, samples 1, 2, 3 in order", "value": "1.04% and 3.18% and 3.78%"}
    ]},
    {"smiles": "CC(=O)N1CCN(c2ccc(OCC3COC(Cn4ccnc4)(c4ccc(Cl)cc4Cl)O3)cc2)CC1", "note": "(stereo not drawn) [Ketoconazole]", "values": [
      {"measurement": "solubility at 4 h", "setting": "[3]; 37 °C, plasma or biological fluid, thermodynamic from solid, from the four mean values in HGFfed45, 75, 105, 135, read-out: grand mean apparent solubility in HGFfed", "value": 2290, "unit": "µg/mL"},
      {"measurement": "solubility thermodynamic at 4 h", "setting": "[3]; HGFfed45, 75, 105, 135, 37 °C, 4 h, mean(SD), read-out: mean apparent equilibrium solubility in pooled aspirates, range over the four HGFfed samples", "value": "770 to 3670", "unit": "µg/mL"},
      {"measurement": "times higher than the point estimate of intragastric solubility", "setting": "[4]; FEDGAS1/2 pH = 3 and FEDGAS1/4 pH = 3 vs 3 mg/mL", "value": "more than 1.6 times"},
      {"measurement": "times higher than the point estimate of intragastric solubility", "setting": "[4]; FEDGAS pH = 3 vs 3 mg/mL", "value": "more than 2.5 times"},
      {"measurement": "percent higher than the point estimate for intragastric solubility", "setting": "[4]; FEDGASbuffer pH 3 vs 3 mg/mL", "value": 50, "unit": "%"},
      {"measurement": "percent lower than the point estimate for intragastric solubility", "setting": "[4]; Level I FeSSGF-V2 vs 3 mg/mL", "value": 30, "unit": "%"},
      {"measurement": "solubility thermodynamic at 4 h", "setting": "[4]; Level I FeSSGF-V3acetates, pH 3, Level I FeSSGF-V3acetates, initial pH 3, pHeq 3.7", "value": 3200, "unit": "µg/mL"},
      {"measurement": "percent lower than the point estimate for intragastric solubility", "setting": "[4]; Level II FeSSGF-V2 vs 3 mg/mL", "value": "more than 40%"},
      {"measurement": "solubility thermodynamic at 4 h", "setting": "[4]; Level II FeSSGF-V3acetates, pH 3, Level II FeSSGF-V3acetates, initial pH 3, pHeq 3.7", "value": 3450, "unit": "µg/mL"},
      {"measurement": "solubility thermodynamic at 4 h", "setting": "[4]; Level III FeSSGF-V3HCl, pH 3, Level III FeSSGF-V3HCl, initial pH 3, pHeq 3.8", "value": 3730, "unit": "µg/mL"},
      {"measurement": "percent higher than the estimated point solubility in antral contents", "setting": "[4]; Level III FeSSGF-V3 prepared with hydrochloric acid", "value": 24, "unit": "%"},
      {"measurement": "solubility thermodynamic at 4 h", "setting": "[4]; biorelevant medium, 37 °C, pH 3, fassgf or other biorelevant, thermodynamic from solid, FEDGAS1/2 pH = 3 (Level II), mean(SD), n = 3", "value": 5650, "unit": "µg/mL"},
      {"measurement": "solubility thermodynamic at 4 h", "setting": "[4]; biorelevant medium, 37 °C, pH 3, fassgf or other biorelevant, thermodynamic from solid, FEDGAS1/4 pH = 3 (Level II), mean(SD), n = 3", "value": 5070, "unit": "µg/mL"},
      {"measurement": "solubility thermodynamic at 4 h", "setting": "[4]; biorelevant medium, 37 °C, pH 3, fassgf or other biorelevant, thermodynamic from solid, FEDGAS pH = 3 (Level II), mean(SD), n = 3", "value": 7570, "unit": "µg/mL"},
      {"measurement": "solubility thermodynamic at 4 h", "setting": "[4]; biorelevant medium, 37 °C, pH 3, fassgf or other biorelevant, thermodynamic from solid, Level II FeSSGF-V2, pH 3, mean(SD), n = 3", "value": 1640, "unit": "µg/mL"},
      {"measurement": "solubility thermodynamic at 4 h", "setting": "[4]; biorelevant medium, pH 3, FEDGASbuffer pH 3 (Level I), mean(SD), n = 3", "value": 4600, "unit": "µg/mL"},
      {"measurement": "solubility thermodynamic at 4 h", "setting": "[4]; biorelevant medium, pH 3, Level I FeSSGF-V2, pH 3, mean(SD), n = 3", "value": 2140, "unit": "µg/mL"},
      {"measurement": "aqueous solubility at pHeq as share of measured apparent solubility", "setting": "HGFfed45", "value": 21, "unit": "%"},
      {"measurement": "aqueous solubility at pHeq as share of measured apparent solubility", "setting": "HGFfed75", "value": 22, "unit": "%"},
      {"measurement": "aqueous solubility at pHeq as share of measured apparent solubility", "setting": "HGFfed105", "value": 18, "unit": "%"},
      {"measurement": "aqueous solubility at pHeq as share of measured apparent solubility", "setting": "HGFfed135", "value": 18, "unit": "%"},
      {"measurement": "incubation time within which equilibrium is achieved", "setting": "[5]", "value": "≤ 4", "unit": "h"},
      {"measurement": "intrinsic aqueous solubility", "setting": "[1]", "value": "≈ 2 μg/mL"},
      {"measurement": "apparent solubility in human antral fluids", "setting": "[6]; 30 min after 500 mL Ensure Plus, pHeq 5.7", "value": 630, "unit": "µg/mL"},
      {"measurement": "apparent solubility in human antral fluids", "setting": "[6]; 60 min after 500 mL Ensure Plus, pHeq 5.1", "value": 3150, "unit": "µg/mL"},
      {"measurement": "apparent solubility in human antral fluids", "setting": "[6]; 120 min after 500 mL Ensure Plus, pHeq 4.9", "value": 4700, "unit": "µg/mL"},
      {"measurement": "adsorption on regenerated cellulose filter", "setting": "[2]; aqueous buffers pH 3.5 to 5", "value": "negligible adsorption"},
      {"measurement": "Ketoconazole Concentration, Mean", "setting": "[2]; pH 3.5, 1st filtration", "value": 2.8763, "unit": "mg/mL"},
      {"measurement": "Ketoconazole Concentration, Mean", "setting": "[2]; pH 3.5, 2nd filtration", "value": 2.8250, "unit": "mg/mL"},
      {"measurement": "% adsorbed", "setting": "[2]; pH 3.5", "value": 1.63, "unit": "%"},
      {"measurement": "Ketoconazole Concentration, Mean", "setting": "[2]; pH 4.0, 1st filtration", "value": 0.9297, "unit": "mg/mL"},
      {"measurement": "Ketoconazole Concentration, Mean", "setting": "[2]; pH 4.0, 2nd filtration", "value": 0.9288, "unit": "mg/mL"},
      {"measurement": "% adsorbed", "setting": "[2]; pH 4.0", "value": 0.23, "unit": "%"},
      {"measurement": "Ketoconazole Concentration, Mean", "setting": "[2]; pH 5.0, 1st filtration", "value": 0.0825, "unit": "mg/mL"},
      {"measurement": "Ketoconazole Concentration, Mean", "setting": "[2]; pH 5.0, 2nd filtration", "value": 0.0775, "unit": "mg/mL"},
      {"measurement": "% adsorbed", "setting": "[2]; pH 5.0", "value": 6.16, "unit": "%"},
      {"measurement": "solubility thermodynamic", "setting": "physchem; aqueous phase, pH 3.7", "value": 1290, "unit": "µg/mL"},
      {"measurement": "solubility thermodynamic at 4 h", "setting": "physchem; pH 4, plasma or biological fluid", "value": 3000, "unit": "µg/mL"},
      {"measurement": "solubility thermodynamic at 4 h", "setting": "physchem; pH 4.1, plasma or biological fluid", "value": 2340, "unit": "µg/mL"},
      {"measurement": "solubility thermodynamic at 4 h", "setting": "physchem; pH 4.2, plasma or biological fluid", "value": 1470, "unit": "µg/mL"},
      {"measurement": "solubility thermodynamic at 4 h", "setting": "physchem; pH 4.6, plasma or biological fluid", "value": 610, "unit": "µg/mL"},
      {"measurement": "solubility thermodynamic at 4 h", "setting": "physchem; plasma or biological fluid", "value": 1850, "unit": "µg/mL"},
      {"measurement": "solubility", "setting": "physchem; pH 4", "value": 650, "unit": "µg/mL"},
      {"measurement": "solubility", "setting": "physchem; pH 4.1", "value": 520, "unit": "µg/mL"},
      {"measurement": "solubility", "setting": "physchem; pH 4.2", "value": 410, "unit": "µg/mL"},
      {"measurement": "solubility", "setting": "physchem; pH 4.6", "value": 170, "unit": "µg/mL"}
    ]}
  ]
}
